From paper PMC6844378, “Structure activity relationship studies on Amb639752: toward the identification of a common pharmacophoric structure for DGKα inhibitors” (Journal of Enzyme Inhibition and Medicinal Chemistry, 2019) come the findings set out here.

For one test, the target named is DGKα (Homo sapiens, UniProt P23743). In words: DGK assay on OST-DGKα enriched MDCK homogenates. It is filed as biochemical. More on the design: expressed in transfected cells; host or cells: MDCK cells (vector-infected, doxycycline-induced), crude homogenate. Conditions: for remaining activity at 100 µM: percentage of residual DGKα activity compared to DMSO control, OST-DGKα overexpressing cell lysates, saturating DAG and ATP, read-out: Residue activity at 100 µM; for IC50: residual OST-DGKα activity at 0.1, 1.0, 10.0 and 100.0 µM. The protocol: Madin-Darby canine kidney (MDCK) cells stably expressing One Strep Tag DGKα (OST-DGKα) were prepared by infecting MDCK cells with a vector expressing an inducible OST tagged DGKα constructs. MDCK cells infected with empty vector were used as controls. MDCK cells were cultured in MEM (minimal essential medium) with 5% FBS (foetal bovine serum) and 1% antibiotic–antimycotic solution. Routinely, cells were splitted every 3–4 days with trypsin–EDTA 0.25% in standard 100 mm dishes.
DGKα, sequence (P23743 whole entry): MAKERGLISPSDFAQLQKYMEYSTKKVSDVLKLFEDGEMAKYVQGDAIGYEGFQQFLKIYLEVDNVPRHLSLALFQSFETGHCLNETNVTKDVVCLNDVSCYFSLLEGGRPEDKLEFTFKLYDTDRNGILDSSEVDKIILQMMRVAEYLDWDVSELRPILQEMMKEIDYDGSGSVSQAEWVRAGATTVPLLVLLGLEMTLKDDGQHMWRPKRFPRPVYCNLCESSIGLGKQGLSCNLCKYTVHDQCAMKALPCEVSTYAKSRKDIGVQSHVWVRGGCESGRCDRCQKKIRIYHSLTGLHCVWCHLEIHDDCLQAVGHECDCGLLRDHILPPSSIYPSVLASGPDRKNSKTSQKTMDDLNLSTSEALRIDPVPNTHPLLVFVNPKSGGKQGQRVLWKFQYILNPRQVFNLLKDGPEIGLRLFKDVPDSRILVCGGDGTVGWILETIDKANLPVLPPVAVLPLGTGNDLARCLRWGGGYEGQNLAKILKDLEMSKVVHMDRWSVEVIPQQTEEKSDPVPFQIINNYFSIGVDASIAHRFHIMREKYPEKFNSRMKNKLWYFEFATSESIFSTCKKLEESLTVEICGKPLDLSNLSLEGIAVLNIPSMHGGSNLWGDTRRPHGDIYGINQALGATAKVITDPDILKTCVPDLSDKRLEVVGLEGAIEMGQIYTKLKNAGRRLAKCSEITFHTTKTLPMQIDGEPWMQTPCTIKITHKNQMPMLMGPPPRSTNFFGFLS
Large cultures of MDCK cells for enzyme preparation were done by plating 5 × 10^6 cells in 245 mm^2 dishes. Once they reached nearly 70% confluence, cells were treated with doxycycline (1 µg/mL, two days). […] Cells were collected with a rubber scraper, homogenised by passing them through a 29 G-needle syringe 20 times and stored in aliquots at –80 °C. Presence of OST-DGKα was confirmed by western blotting and enzyme assay, transduced DGKα has an activity >100 folds the endogenous DGK.
Essentionally, the same procedure was followed as reported previously in Velnati et al.[9] In brief, DGK activity was assayed by measuring initial velocities (5 min at 27 °C) in presence of saturating substrate concentrations. Reaction conditions: 0.9 µg/µL 1,2-dioleoyl-sn-glycerol, 5 mM ATP, 0.01 µCi/µL [γ^32P]-ATP, 1 mM sodium orthovanadate, 10 mM MgCl2, 1.2 mM EGTA in 7.5 mM Hepes pH 8[12]. Reaction mixture is assembled mixing enzyme (24.5 µL of homogenate), 100× inhibitor or DMSO (0.5 µL), 5× ATP solution (10 µL of 25 mM ATP, 0.05 µCi/µL [γ^32P]-ATP (Perkin-Elmer, Milan, Italy), 5 mM sodium orthovanadate, 50 mM MgCl2), and 3.3× DAG solution (15 µL of 3 µg/µL 1,2-dioleoyl-sn-glycerol resuspended by sonication in 4 mM EGTA in 25 mM Hepes pH 8). The reaction was stopped after 5 min by adding 200 µL of freshly prepared 1 M HCl and lipid was extracted by adding 200 µL of CH3OH:CHCl3 1:1 solution and vortexing for 1 min. The two phases were separated by centrifugation (12,000 RCF for 2 min). Twenty-five microlitres of the lower organic phase was spotted in small drops on silica TLC plates. TLC was run 10 cm and dried before radioactive signals were detected by GS-250 molecular imager and was quantified by quantity one (Bio-Rad, Hercules, CA) software assuring the absence of saturated spots.
Percentage residual activity was calculated as follows: (OST-DGKα homogenate with inhibitor – vector homogenate)/(OST-DGKα homogenate with DMSO – vector homogenate)×100.
Data for the screen on OST-DGKα homogenates are the mean of duplicates. The compounds showing inhibitory activity in this assay were tested >4 times and the mean ± SEM is reported.
To calculate IC50 values of active inhibitors, the inhibitor activity was measured at least three times at 0.1, 1.0, 10.0, and 100.0 µM concentration. Data were analysed using [inhibitor] vs. normalised response parameters with least square [ordinary] curve fitting method in GraphPad PRISM 8.0 software (GraphPad Software, La Jolla, CA) mentioning 95% confidence interval and IC50 values always greater than 0.0. […] In all the experiments, the data were normalised with the controls.
Each inhibitor was tested in duplicate at least once, and DGKα activity was expressed as percentage of residual DGKα activity compared to DMSO control in the same assay. Assay uses OST-DGKα overexpressing cell lysates in presence of saturating exogenous DAG and ATP. We considered R59022 (commercially available) and the lead compound Amb63975230 as our reference molecules.
To measure the inhibitor potency, we determined the IC50 values for the compounds that resulted active when tested at 100 µM by measuring the residual OST-DGKα activity over a dose range of inhibitor concentrations (0.1 µM, 1.0 µM, 10.0 µM, and 100.0 µM).

The test system of a further test is SAP-deficient T cells. In words: RICD assay in SAP silenced T cells. Conditions: 10 µM, 30 min pre-treatment, OKT3 10 ng/mL, 24 h; for rescue of RICD (apoptosis) in SAP-deficient T cells: SAP siRNA. It is filed as cell-based, human. The procedure: PBL were isolated from healthy anonymous human donors by Ficoll-Paque PLUS (GE Healthcare, Chicago, IL) density gradient centrifugation, washed, and resuspended at 2 × 10^6 cell/mL in RPMI-GlutaMAX containing 10% heat inactivated FCS, 2 mM glutamine, and 100 U/mL of penicillin and streptomycin. T cells were activated with 1 µg/mL anti-CD3 (UCHT1) and anti-CD28 (clone CD28.2) antibodies. After three days, activated T cells were washed and cultured in medium additionated of 100 IU/mL rhIL-2 (Peprotech, Rocky Hill, NJ) at 1.2 × 10^6 cells/mL for ≥7 days by changing media for every 2–3 days.
Activated human PBLs were transfected with 200 pmol of siRNA oligonucleotides specific for the target protein (Stealth Select siRNA; Life Technologies, Carlsbad, CA) or a non-specific control oligo (Life Technologies, Carlsbad, CA). Transient transfections were performed using Amaxa nucleofector kits for human T cells (Lonza, Basel, Switzerland) and the Amaxa Nucleofector II or 4D systems (programmes T-20 or EI-115). Cells were cultured in IL-2 (100 IU/mL) for four days to allow target gene knockdown. Knockdown efficiency was periodically evaluated by Western blotting.
To test restimulation induced cell death, activated T cells (10^5 cells/well) were plated in triplicate in 96-well round-bottom plate and treated with anti-CD3 (clone OKT3) (10 ng/mL) in RPMI-GlutaMAX supplemented with 100 IU/mL rhIL-2 for 24 h. In these assays, inhibitors (10 µM) were added 30 min before the restimulation with OKT3. 24 h after treatment, cells were stained with 20 ng/mL propidium iodide and collected for a constant time of 30 s per sample on Attune Nxt Flow Cytometer (Thermo Fisher Scientific, Waltham, MA). Cell death is expressed as % cell loss and calculated as: % cell loss=(1−(number of viable cells in sample/number of viable cells in control)×100)
Results were expressed as mean ± standard error of the mean (SEM). We always compared controls and SAP silenced lymphocytes from the same donors as there is a large individual variability in RICD sensitivity.
To evaluate inhibitor efficacy in physiological context, we modelled XLP-1 by silencing SAP in primary peripheral blood T lymphocytes (PBLs) and restimulating them with anti-CD3 antibody (OKT3 10 ng/mL, 24 h). We pre-treated the cells with the indicated inhibitors for 30 min at a concentration of 10 µM[8].
Figure 9. DGKα inhibitors partially restores apoptosis in SAP deficient lymphocytes. […] After 4 days, the cells were restimulated with CD3 agonist OKT3 (10 ng/mL) in presence of respective inhibitor. Vehicle (DMSO) was used as control. Twenty-four hours later, the % of cell loss was evaluated by PI staining. Data are the mean ± SEM of nine independent experiments performed in triplicate.

The structures appear in SMILES notation.

As for `Cc1ccc2c(C(=O)CN3CCN(C(=O)c4ccco4)CC3)c(C)[nH]c2c1` [Amb639752], at DGKα (100 µM), the inhibition at 100 µM stood at 96% and the remaining activity at 100 µM stood at 4%. Further, the IC50 against DGKα stood at 6900 ± 3000 nM. Besides, in the test on SAP-deficient T cells, the “effect on RICD in control siRNA-transfected cells” value is on record as “slightly reducing”.
For `Cc1ccc2c(C(=O)CN3CCN(C(=O)c4ccc(Cl)cc4)CC3)c(C)[nH]c2c1` [Compound 11, 2-(4-(4-Chlorobenzoyl)piperazin-1-yl)-1-(2,6-dimethyl-1H-indol-3-yl)ethan-1-one], the remaining activity at 100 µM at DGKα (100 µM) is 6%. Half-maximal inhibition at DGKα (IC50) was put at 1600 nM. In the test with SAP-deficient T cells, the “effect on RICD in control siRNA-transfected cells” value is listed as “slightly reducing” and the “rescue of RICD (apoptosis) in SAP-deficient T cells” value is on record as “restore apoptosis”.
Consider `Cc1ccc(C(=O)N2CCN(CC(=O)c3c(C)[nH]c4cc(C)ccc34)CC2)cc1` [Compound 20, 1-(2,6-Dimethyl-1H-indol-3-yl)-2-(4-(4-methylbenzoyl)piperazin-1-yl)ethan-1-one], for which the remaining activity at 100 µM at DGKα (100 µM) worked out at 3%. In addition, on DGKα, it took 1800 nM to reach half-maximal inhibition (IC50). In the test on SAP-deficient T cells, the “rescue of RICD (apoptosis) in SAP-deficient T cells” value was “restore apoptosis”.

One may read the inhibition as how much of the control response was suppressed. Read a low inhibition as a response near the control. What is called IC50 is the concentration at which inhibition is half-maximal. Low readings indicate greater potency in that assay, high ones weaker potency in that assay.
